Test system: patient with primary biliary cirrhosis (stage IV in Scheuer classification)
Assay: Clinical effect of oral L-alanine in a patient with terminal-stage primary biliary cirrhosis
Assay type: in vivo, human
Experimental: The clinical effect of L-alanine was examined in a patient with primary biliary cirrhosis. The patient was suffering from primary biliary cirrhosis in the terminal stages (stage IV in Scheuer classification). After their symptoms had appeared, 600 mg/day of ursodeoxycholic acid was orally administered as a therapeutic agent everyday. However, this treatment became ineffective and the results of biochemical tests also became worse. Under these conditions, 18 g/day of L-alanine was orally administered to the patient in three doses every day for two months. Before and after the administration of L-alanine, two weeks in total of the observation period was taken, and then eight weeks of the administration period was taken. The blood specimen was taken once a week to determine total serum bilirubin and transaminase (AST). By the administration of L-alanine, total serum bilirubin and transaminase were reduced. […] As the administration was finished, increase of both total serum bilirubin and transaminase was observed.

[1] = observation period after end of 18 g/day oral administration
[2] = patient, 18 g/day orally in three doses, eight weeks administration, weekly blood specimen

## C[C@H](N)C(=O)O [L-alanine]
18 g/day orally, effect on total serum bilirubin and transaminase, lasted in the course of the administration
  time of maximum effect after the start of the administration: two
L-alanine 18 g/day orally, ursodeoxycholic acid 600 mg/day orally
  therapeutic effect on the terminal case of primary biliary cirrhosis (symptoms): excellent therapeutic effect
[1]
  total serum bilirubin after the administration was finished: increase
  transaminase after the administration was finished: increase
[2]
  total serum bilirubin: reduced
  transaminase (AST): reduced

Source: patent publication US6339104B1, “Therapeutic agent for primary biliary cirrhosis” (The City of Osaka, priority 1998, dated 2002)
